The source of these data is ChEMBL document CHEMBL5303573, “Mapping human microbiome drug metabolism by gut bacteria and their genes” (Nature, 2019).

Data set [1] can be described thus: The drug is tested on Bacteroides coprophilus strain: DSM18228 for biotransformation. The drug concentrations were measured before and after a 12-h incubation by liquid-chromatography-coupled mass spectrometry (LC–MS). To be noted: 2 µM.
Data set [2] in a line: The drug is tested on Collinsella aerofaciens strain: ATCC25986 for biotransformation. The drug concentrations were measured before and after a 12-h incubation by liquid-chromatography-coupled mass spectrometry (LC–MS). The conditions noted are these: 2 µM.
A short description of data set [3]: The drug is tested on Edwardsiella tarda strain: ATCC23685 for biotransformation. The drug concentrations were measured before and after a 12-h incubation by liquid-chromatography-coupled mass spectrometry (LC–MS). The conditions noted are these: 2 µM.
Data set [4] is described as follows: The drug is tested on Blautia hansenii strain: DSM20583 for biotransformation. The drug concentrations were measured before and after a 12-h incubation by liquid-chromatography-coupled mass spectrometry (LC–MS). To be noted: 2 µM.
Data set [5] can be described thus: The drug is tested on Clostridium symbiosum strain: ATCC14940 for biotransformation. The drug concentrations were measured before and after a 12-h incubation by liquid-chromatography-coupled mass spectrometry (LC–MS). To be noted: 2 µM.
For data set [6] the following is noted: victivallis vadensis, 12 h, 2 µM.
Description: The drug is tested on Victivallis vadensis strain: ATCC BAA-548 for biotransformation. The drug concentrations were measured before and after a 12-h incubation by liquid-chromatography-coupled mass spectrometry (LC–MS)
The nature of data set [7]: The drug is tested on Bacteroides vulgatus strain: ATCC8482 for biotransformation. The drug concentrations were measured before and after a 12-h incubation by liquid-chromatography-coupled mass spectrometry (LC–MS). To be noted: phocaeicola vulgatus, 2 µM.
Data set [8] is described as follows: The drug is tested on Bifidobacterium breve strain: DSM20213 for biotransformation. The drug concentrations were measured before and after a 12-h incubation by liquid-chromatography-coupled mass spectrometry (LC–MS). The conditions noted are these: 2 µM.
For data set [9] the following is noted: bacteroides thetaiotaomicron, 12 h, 2 µM.
Description: The drug is tested on Bacteroides thetaiotaomicron strain: VPI-5482 for biotransformation. The drug concentrations were measured before and after a 12-h incubation by liquid-chromatography-coupled mass spectrometry (LC–MS)
The nature of data set [10]: The drug is tested on Bacteroides fragilis strain: HMW610 for biotransformation. The drug concentrations were measured before and after a 12-h incubation by liquid-chromatography-coupled mass spectrometry (LC–MS). The conditions noted are these: 2 µM.
A short description of data set [11]: The drug is tested on Bacteroides cellulosilyticus strain: DSM14838 for biotransformation. The drug concentrations were measured before and after a 12-h incubation by liquid-chromatography-coupled mass spectrometry (LC–MS). To be noted: 2 µM.
Data set [12] in a line: The drug is tested on Clostridium sporogenes strain: ATCC15579 for biotransformation. The drug concentrations were measured before and after a 12-h incubation by liquid-chromatography-coupled mass spectrometry (LC–MS). The conditions noted are these: 2 µM.
The nature of data set [13]: The drug is tested on Clostridium ramosum strain: DSM1402 for biotransformation. The drug concentrations were measured before and after a 12-h incubation by liquid-chromatography-coupled mass spectrometry (LC–MS). The conditions noted are these: thomasclavelia ramosa, 2 µM.
Data set [14] in a line: The drug is tested on Eubacterium hallii strain: DSM3353 for biotransformation. The drug concentrations were measured before and after a 12-h incubation by liquid-chromatography-coupled mass spectrometry (LC–MS). The conditions noted are these: anaerobutyricum hallii, 2 µM.
The conditions of data set [15]: bacteroides fragilis, 12 h, 2 µM.
Description: The drug is tested on Bacteroides fragilis strain: DS-208 for biotransformation. The drug concentrations were measured before and after a 12-h incubation by liquid-chromatography-coupled mass spectrometry (LC–MS)
A short description of data set [16]: The drug is tested on Bacteroides xylanisolvens strain: DSM18836 for biotransformation. The drug concentrations were measured before and after a 12-h incubation by liquid-chromatography-coupled mass spectrometry (LC–MS). To be noted: 2 µM.
For data set [17] the following is noted: bacteroides fragilis, 12 h, 2 µM. The source holds these as a separate data set.
Description: The drug is tested on Bacteroides fragilis strain: 3397 (T10) for biotransformation. The drug concentrations were measured before and after a 12-h incubation by liquid-chromatography-coupled mass spectrometry (LC–MS)
A short description of data set [18]: The drug is tested on Eubacterium rectale strain: ATCC33656 for biotransformation. The drug concentrations were measured before and after a 12-h incubation by liquid-chromatography-coupled mass spectrometry (LC–MS). The conditions noted are these: agathobacter rectalis, 2 µM.
The conditions of data set [19]: bacteroides thetaiotaomicron, 12 h, 2 µM. This is another data set of the same source.
Description: The drug is tested on Bacteroides thetaiotaomicron strain: 7330 for biotransformation. The drug concentrations were measured before and after a 12-h incubation by liquid-chromatography-coupled mass spectrometry (LC–MS)
Data set [20] is described as follows: The drug is tested on Bacteroides fragilis strain: ATCC43859 for biotransformation. The drug concentrations were measured before and after a 12-h incubation by liquid-chromatography-coupled mass spectrometry (LC–MS). To be noted: 2 µM.

`CN1C(=O)CCS(=O)(=O)C1c1ccc(Cl)cc1` (stereo not given) [CHLORMEZANONE]: the “Bacterial Biotransformation” value in [1] was “Compound NOT metabolized”; in data set [2], “Compound NOT metabolized”; in data set [3] it was “Compound NOT metabolized”; in data set [4], “Compound metabolized”; in data set [5], “Compound NOT metabolized”; in data set [6], “Compound NOT metabolized”. Further, the “Bacterial Biotransformation” value is “Compound metabolized” in data set [7]; “Compound NOT metabolized” in [8]; “Compound NOT metabolized” in data set [9]; “Compound NOT metabolized” in data set [10]; “Compound NOT metabolized” in [11]; “Compound NOT metabolized” in data set [12]. For the same molecule, the “Bacterial Biotransformation” value in data set [13], in data set [14], in data set [15], in data set [16] and in data set [17] was “Compound NOT metabolized” each time.
On to `CC(=O)OCC(=O)NCCCOc1cccc(CN2CCCCC2)c1` [ROXATIDINE ACETATE], for which the “Bacterial Biotransformation” value in [1] is given as “Compound metabolized”; in data set [2] it was “Compound metabolized”; in [18], “Compound NOT metabolized”; in [3], “Compound metabolized”; in data set [5], “Compound NOT metabolized”; in data set [6], “Compound metabolized”. Besides, the “Bacterial Biotransformation” value in [7], in data set [8], in [9], in [10], in data set [11] and in [13] was “Compound metabolized” each time. Moreover, the “Bacterial Biotransformation” value in data set [14] is given as “Compound NOT metabolized”; in data set [19], “Compound metabolized”; in [15] it was “Compound metabolized”; in data set [16], “Compound metabolized”; in data set [20], “Compound metabolized”; in data set [17] it was “Compound metabolized”.
Take `CN1C[C@H](C(=O)N[C@]2(C)O[C@@]3(O)[C@@H]4CCCN4C(=O)[C@H](Cc4ccccc4)N3C2=O)C=C2c3cccc4[nH]cc(c34)C[C@H]21.CN1C[C@H](C(=O)N[C@]2(C)O[C@@]3(O)[C@@H]4CCCN4C(=O)[C@H](Cc4ccccc4)N3C2=O)C=C2c3cccc4[nH]cc(c34)C[C@H]21.O=C(O)C(O)C(O)C(=O)O` [ERGOTAMINE TARTRATE]: the “Bacterial Biotransformation” value in [1], in data set [2], in data set [3], in data set [4], in data set [5] and in data set [6] was “Compound metabolized” throughout. The “Bacterial Biotransformation” value in [7], in data set [8], in data set [9], in [11], in data set [12] and in data set [13] was “Compound metabolized” throughout. In addition, the “Bacterial Biotransformation” value in data set [14], in [19], in data set [15], in [16] and in data set [17] was “Compound metabolized” throughout.
Take `COc1ccc2c(c1OC)C(=O)O[C@@H]2[C@H]1c2c(cc3c(c2OC)OCO3)CCN1C` [NOSCAPINE]: the “Bacterial Biotransformation” value in data set [1] was “Compound metabolized”; in data set [2] it was “Compound metabolized”; in [3], “Compound metabolized”; in [5] it was “Compound metabolized”; in [6], “Compound NOT metabolized”; in data set [7], “Compound metabolized”. Besides, the “Bacterial Biotransformation” value in [8] is on record as “Compound metabolized”; in [9], “Compound metabolized”; in data set [10], “Compound NOT metabolized”; in data set [11], “Compound metabolized”; in [12] it was “Compound NOT metabolized”; in data set [13], “Compound NOT metabolized”. In addition, the “Bacterial Biotransformation” value is on record as “Compound metabolized” in data set [14]; “Compound metabolized” in data set [19]; “Compound metabolized” in [15]; “Compound metabolized” in [16]; “Compound NOT metabolized” in data set [20]; “Compound NOT metabolized” in data set [17].
Regarding `CN1CCN(C2=Nc3cc(Cl)ccc3Nc3ccccc32)CC1` [CLOZAPINE], the “Bacterial Biotransformation” value in data set [2], in [18], in data set [3], in [4], in data set [5] and in [6] was “Compound NOT metabolized” each time. Besides, the “Bacterial Biotransformation” value in data set [7], in data set [8], in [9], in data set [10], in data set [11] and in [13] was “Compound NOT metabolized” each time. Also, the “Bacterial Biotransformation” value in data set [14], in [19], in [15], in data set [16] and in data set [17] was “Compound NOT metabolized” each time.
For `CC(NC(C)(C)C)C(=O)c1cccc(Cl)c1` (stereo not given) [BUPROPION], the “Bacterial Biotransformation” value was “Compound metabolized” in data set [1]; “Compound NOT metabolized” in [3]; “Compound NOT metabolized” in [4]; “Compound NOT metabolized” in data set [6]; “Compound NOT metabolized” in data set [7]; “Compound NOT metabolized” in data set [8]. Also, the “Bacterial Biotransformation” value in data set [9], in data set [10], in [11], in data set [12], in [13] and in [14] was “Compound NOT metabolized” throughout. In addition, the “Bacterial Biotransformation” value in data set [19], in data set [15], in [16] and in [17] was “Compound NOT metabolized” throughout.
As for `CC[C@H](C)C(=O)O[C@H]1C[C@@H](C)C=C2C=C[C@H](C)[C@H](CC[C@@H]3C[C@@H](O)CC(=O)O3)[C@H]21` [LOVASTATIN], the “Bacterial Biotransformation” value in data set [1], in data set [2], in [18], in [3], in data set [5] and in data set [6] was “Compound NOT metabolized” each time. Further, the “Bacterial Biotransformation” value was “Compound metabolized” in [7]; “Compound metabolized” in data set [8]; “Compound NOT metabolized” in data set [9]; “Compound metabolized” in [10]; “Compound metabolized” in [11]; “Compound NOT metabolized” in data set [13]. The “Bacterial Biotransformation” value in data set [14] is listed as “Compound metabolized”; in data set [19], “Compound metabolized”; in data set [16], “Compound NOT metabolized”; in [20], “Compound NOT metabolized”; in data set [17], “Compound metabolized”.
